Assay results from article PMC6197744, “Triazolo[4,5-d]pyrimidines as Validated General Control Nonderepressible 2 (GCN2) Protein Kinase Inhibitors Reduce Growth of Leukemia Cells” (Computational and Structural Biotechnology Journal, 2018).

What was measured:
HRI = molecular target: T1, HRI (Homo sapiens, UniProt Q9BQI3); assay: radiometric HotSpot kinase assay; assay type: biochemical; conditions: 10 μM compound, 10 μM ATP; read-out: % Enzyme inhibition at 10 μM, HRI
T1 construct: purchased Reaction Biology Corporation (Malvern, PA)
Experimental: (§1) Compounds 1–9 were screened in a radiometric […] kinase assay against human GCN2 and other kinases involved in the UPR and ISR pathways (Table 1). […] The most soluble of the potent tool compounds (1 and 2) were selected for in vitro cell-based assays where the phosphorylation of eIF2α (p-eIF2α) was used as a readout for GCN2 inhibition.
(§2) In vitro compound profiling for recombinant GCN2, PERK, HRI, PKR, or IRE1 kinases were performed at Reaction Biology Corporation (Malvern, PA) using the HotSpot kinase assay. Briefly, all compounds provided for testing were dissolved in 10 mM DMSO stock solutions. Serial dilutions were conducted by epMotion 5070 in DMSO. Specific kinase/substrate mixtures and required cofactors were prepared in reaction buffer (20 mM Hepes (pH 7.5), 10 mM MgCl2, 1 mM EGTA, 0.02% Brij35, 0.02 mg/ml BSA, 0.1 mM Na3VO4, 2 mM DTT, 1% DMSO). Compounds were added to the kinase reaction mixture by Acoustic technology (Echo550; nanoliter range) and incubated for 20 min at room temperature. The kinase reaction was initiated by adding ^33P ATP to a final concentration of 10 μM for single point kinase activity reading or to the ATP Km of GCN2 for IC50 readings. The reaction was incubated or 2 h at room temperature and kinase activity was detected by filter-binding method. IC50 values and curves were generated with GraphPad Prism 7 (GraphPad software).

IRE1 = molecular target: T2, IRE1 (Homo sapiens, UniProt O75460); assay: radiometric HotSpot kinase assay; assay type: biochemical; conditions: 10 μM compound, 10 μM ATP; read-out: % Enzyme inhibition at 10 μM, IRE1
T2 construct: purchased Reaction Biology Corporation (Malvern, PA)
Experimental: as §1, §2

PKR = molecular target: T3, PKR (Homo sapiens, UniProt P19525); assay: radiometric HotSpot kinase assay; assay type: biochemical; conditions: for inhibition at 10 µM: 10 μM compound, 10 μM ATP, read-out: % Enzyme inhibition at 10 μM, PKR; for IC50: means of two independent experiments
T3 construct: purchased Reaction Biology Corporation (Malvern, PA)
Experimental: as §1, §2

[1] = Permeability assay (PAMPA); assay type: in vitro ADME; conditions: pH 7.4, 25 °C, <10 low, >10 high permeability
Experimental: GCN2 compound permeability was determined by PAMPA and was performed by Pharmaron, Inc. (Beijing, China). All compounds and control stock solutions were prepared in DMSO at a concentration of 10 mM. Testosterone and methotrexate were used as control compounds. Compound stock solutions were diluted with PBS (pH 7.4) to a final concentration of 10 μM. A 1.8% solution (w/v) of lecithin in dodecane was prepared and sonicated to ensure a complete dissolution. 5 μL of the lecithin/dodecane mixture were pipetted into each acceptor plate well (top compartment). Immediately after the application of the artificial membrane (within 10 min), 300 μL of PBS (pH 7.4) solution were added to each well of the acceptor plate. 300 μL of drug-containing solutions were added to each well of the donor plate (bottom compartment) in triplicate. The plate lid was replaced and incubated at 25 °C, 60 rpm for 16 h. After incubation, aliquots of 50 μL from each well of acceptor and donor plate were transferred into a 96-well plate and 200 μL of methanol (containing IS: 100 nM Alprazolam, 200 nM Labetalol and 2 μM Ketoprofen) was added to each well. The plate was vortexed at 750 rpm for 100 s. Samples were centrifuged at 3220g for 20 min. The compound concentrations were determined by LC/MS/MS. The effective permeability (Pe), in units of centimeter per second were calculated using the following equation: logPe=logC×−ln1−drugacceptor/drugequilibrium

[2] = test system: phosphorylation of eIF2α (p-eIF2α); assay: p-eIF2α reduction in amino acid deprived HEK293T cells (Western blot); assay type: cell-based; conditions: Homo sapiens, HEK-293T, amino acid deprived 4 h
Experimental: as §1
HEK293T cells were purchased from the American Type Culture Collection and were cultured in Dulbecco's modified Eagle's medium (DMEM; GIBCO-11995) supplemented with 10% fetal bovine serum (FBS) (Corning™ 35015CV) and antibiotics (penicillin, 10,000 UI/ml and streptomycin, 10,000 UI/ml) (Life Technologies, 15,140,122). When indicated, cells were deprived of amino acids for 4 h with DMEM (DMEM; GIBCO-21013024) containing no glutamine, no methionine, no cysteine, and no FBS. Upon starvation, cells were treated with DMSO or compound. All cell lines were maintained in humidified incubators at 37 °C under 5% CO2.
Cells were lysed for 10 min on ice with RIPA lysis buffer (50 mM Tris (pH 8), 150 mM NaCl, 1% NP-40, 0.5% sodium deoxycholate, 0.1% SDS, containing Protease Inhibitor Cocktail (PIC) (ROCHE, 11836170001), 100 mM NaF, 2 mM NaVO4, 1 mM Na B-glycerophosphate). […] IC50s were calculated using dose response – Inhibition nonlinear regression algorithm [[inhibitor] vs. response] in GraphPad Prism 7 (GraphPad Software).

MALME-3M = assay: NCI-60 one-dose screen; assay type: cell-based, human; conditions: 48 h; for inhibition at 10 µM: Homo sapiens, Melanoma MALME-3M, read-out: Percent growth inhibition; for increase in cell growth: melanoma cell line MALME-3 M, 10 μM
Experimental: Compounds 1 and 2 were submitted to the National Cancer Institute NCI-60 Tumor Cell Screening Program (NCI number 800,700 and 800,701, respectively) for evaluation against the 60 cell line NCI panel at a single dose of 10 μM. […] Leukemia and breast cancer cell lines comprised the only cancer groups that were uniformly sensitive to both 1 and 2, with the greatest sensitivity seen in the leukemia SR cell line.
Compounds 1 and 2 were submitted to the NCI for growth inhibition screening against its panel of 60 cancer cell lines. The NCI screening protocol has extensively been described [[53], [54], [55], [56]]. Briefly, cancerous cell lines were grown in RPMI 1640 medium containing 5% fetal bovine serum and 2 mM L-glutamine. Depending on the doubling time of each cell line, 5000–40,000 cells were seeded in 96-well plates for 24 h. Cells were then treated with compounds 1 or 2 at a concentration of 10 μM and incubated for 48 h at 37 °C in a humidified atmosphere containing 5% CO2. The cells were then fixed and stained with sulforhodamine B (SRB) to determine their viability. The data were analyzed using a program called COMPARE to determine the percent growth inhibition of each compound.

T3 sequence (P19525 whole entry): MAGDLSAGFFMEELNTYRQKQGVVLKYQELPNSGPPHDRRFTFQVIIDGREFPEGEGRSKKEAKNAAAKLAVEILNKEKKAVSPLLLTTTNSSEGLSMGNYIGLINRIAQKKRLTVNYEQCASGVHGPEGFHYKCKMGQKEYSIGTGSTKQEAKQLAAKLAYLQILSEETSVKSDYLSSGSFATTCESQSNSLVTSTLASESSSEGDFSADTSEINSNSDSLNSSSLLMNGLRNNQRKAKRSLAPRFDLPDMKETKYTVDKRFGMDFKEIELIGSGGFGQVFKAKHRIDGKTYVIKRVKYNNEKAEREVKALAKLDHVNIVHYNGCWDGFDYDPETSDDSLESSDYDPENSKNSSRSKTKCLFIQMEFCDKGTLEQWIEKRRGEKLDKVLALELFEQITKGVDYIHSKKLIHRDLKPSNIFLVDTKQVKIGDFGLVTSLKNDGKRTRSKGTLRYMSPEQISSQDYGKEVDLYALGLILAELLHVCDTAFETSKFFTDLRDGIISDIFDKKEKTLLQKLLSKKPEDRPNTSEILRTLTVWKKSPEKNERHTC
T2 sequence (O75460 19-977): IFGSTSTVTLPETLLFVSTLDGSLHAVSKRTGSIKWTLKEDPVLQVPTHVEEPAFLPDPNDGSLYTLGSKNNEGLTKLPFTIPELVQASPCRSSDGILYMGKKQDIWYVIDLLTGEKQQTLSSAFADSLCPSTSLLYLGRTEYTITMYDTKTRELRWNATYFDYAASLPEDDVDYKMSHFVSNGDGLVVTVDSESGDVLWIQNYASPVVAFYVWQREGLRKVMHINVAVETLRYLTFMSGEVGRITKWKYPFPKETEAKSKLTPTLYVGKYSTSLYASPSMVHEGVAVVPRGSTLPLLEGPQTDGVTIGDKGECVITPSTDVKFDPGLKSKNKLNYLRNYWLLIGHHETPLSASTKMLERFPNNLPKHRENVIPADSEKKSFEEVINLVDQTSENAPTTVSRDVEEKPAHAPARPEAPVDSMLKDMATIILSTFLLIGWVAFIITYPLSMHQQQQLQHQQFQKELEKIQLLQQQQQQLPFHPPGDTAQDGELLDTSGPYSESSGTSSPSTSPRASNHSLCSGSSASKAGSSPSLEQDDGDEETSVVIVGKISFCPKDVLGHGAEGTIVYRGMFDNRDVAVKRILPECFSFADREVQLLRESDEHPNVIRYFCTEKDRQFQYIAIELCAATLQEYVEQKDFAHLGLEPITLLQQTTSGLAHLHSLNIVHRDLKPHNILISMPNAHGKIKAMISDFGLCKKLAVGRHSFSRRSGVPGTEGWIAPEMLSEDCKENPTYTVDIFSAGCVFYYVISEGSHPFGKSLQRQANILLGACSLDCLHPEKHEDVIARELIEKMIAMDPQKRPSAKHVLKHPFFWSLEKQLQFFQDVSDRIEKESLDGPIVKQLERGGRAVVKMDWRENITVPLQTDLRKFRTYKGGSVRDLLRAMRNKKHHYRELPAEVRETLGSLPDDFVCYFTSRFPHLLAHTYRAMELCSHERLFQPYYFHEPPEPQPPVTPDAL
T1 sequence (Q9BQI3 whole entry): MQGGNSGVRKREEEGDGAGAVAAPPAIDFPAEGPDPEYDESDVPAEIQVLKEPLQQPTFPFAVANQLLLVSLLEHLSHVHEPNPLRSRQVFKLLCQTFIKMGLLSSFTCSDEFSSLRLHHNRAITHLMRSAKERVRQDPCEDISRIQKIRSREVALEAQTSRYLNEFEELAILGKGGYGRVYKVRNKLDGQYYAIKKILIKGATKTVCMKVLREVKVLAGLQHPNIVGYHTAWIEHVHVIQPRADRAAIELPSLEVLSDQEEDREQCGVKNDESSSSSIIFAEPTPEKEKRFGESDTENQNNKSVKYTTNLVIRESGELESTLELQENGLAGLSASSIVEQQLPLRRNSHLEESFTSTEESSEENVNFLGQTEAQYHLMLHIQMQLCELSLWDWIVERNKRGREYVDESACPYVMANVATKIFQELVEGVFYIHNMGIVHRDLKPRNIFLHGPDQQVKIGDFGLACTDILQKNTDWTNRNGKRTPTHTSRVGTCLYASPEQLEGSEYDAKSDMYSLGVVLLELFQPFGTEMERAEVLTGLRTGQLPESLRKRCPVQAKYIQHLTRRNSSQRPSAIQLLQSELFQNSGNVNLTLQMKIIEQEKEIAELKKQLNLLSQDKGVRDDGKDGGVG

Row | Structure (SMILES) | inhibition at 10 µM (HRI) [%] | inhibition at 10 µM (IRE1) [%] | inhibition at 10 µM (PKR) [%] | IC50 (PKR) [µM] | Papp at 16 h, 10 μM [1] [nm/s] | IC50 [2] [µM] | inhibition at 10 µM (MALME-3M) [%] | increase in cell growth (MALME-3M) [%]
1 | CCOc1ccc(-n2nnc3cnc(Nc4cnn(CC)c4)nc32)cc1 [Compound 2, 3-(4-Ethoxyphenyl)-N-(1-ethyl-1H-pyrazol-4-yl)-3H-[1,2,3]triazolo[4,5-d]pyrimidin-5-amine] | < 10 | 20 | 99 | 0.0399 | 151 | 0.138 | -37.2 | 37.2
2 | CCn1cc(Nc2ncc3nnn(-c4ccc(C(=O)OC)cc4)c3n2)cn1 [Compound 1, Methyl 4-(5-((1-ethyl-1H-pyrazol-4-yl)amino)-3H-[1,2,3]triazolo[4,5-d]pyrimidin-3-yl)benzoate] | 14 | 37 | 93 | 0.119 | 160 | 0.0526 | -27.7 | 27.7
